Experimental data: patent publication US10906915B2, “Substituted pyrazoloazepin-4-ones and their use as phosphodiesterase inhibitors” (LEO Pharma A/S, priority 2016, dated 2021)

What follows are molecules tested against human PDE4D catalytic domain (UniProt no. Q08499) (Homo sapiens (Human), UniProt Q08499) (assay: PDE4 assay (TR-FRET, FAM-cAMP cleavage)). Details: read-out: PDE4 IC50 range.
Sequence of human PDE4D catalytic domain (Q08499 380-740 limits assumed): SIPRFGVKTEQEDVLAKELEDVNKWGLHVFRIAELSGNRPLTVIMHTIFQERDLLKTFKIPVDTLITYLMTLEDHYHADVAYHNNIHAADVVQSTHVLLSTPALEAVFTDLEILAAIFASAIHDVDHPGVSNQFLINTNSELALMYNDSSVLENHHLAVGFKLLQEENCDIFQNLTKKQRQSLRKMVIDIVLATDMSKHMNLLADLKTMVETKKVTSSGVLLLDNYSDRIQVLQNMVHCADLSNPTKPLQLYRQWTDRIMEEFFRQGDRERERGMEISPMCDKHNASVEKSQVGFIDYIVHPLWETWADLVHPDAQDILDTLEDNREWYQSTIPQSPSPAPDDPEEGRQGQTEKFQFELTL
Format: biochemical
Method in brief: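 PDE4D catalytic domain ([…]) was incubated with unlabelled cAMP plus FAM-cAMP and titrated compound, stopped with binding buffer of metal-ion nanoparticles and Tb donor. AMP generation read by TR-FRET; IC50 as 50% inhibition of cleavage versus controls, reported as nM ranges.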
Molecule `CCc1nn(CC(C)(C)COC(=O)c2cccc(C(=O)N3CCN(C(C)=O)CC3)c2)c2c1C(=O)NCC1(CCOCC1)C2` [Example 349, [3-(3-ethyl-4-oxo-spiro[6,8-dihydro-5H-pyrazolo[4,3-c]azepine-7,4′-tetrahydropyran]-1-yl)-2,2-dimethyl-propyl] 3-(4-acetylpiperazine-1-carbonyl)benzoate] has an IC50 of under 100 nM.
Molecule `CCc1nn(CC2(COC(=O)c3ccc(C)cc3)CC2)c2c1C(=O)NCC1(CCOCC1)C2` [Example 351, [1-[(3-ethyl-4-oxo-spiro[6,8-dihydro-5H-pyrazolo[4,3-c]azepine-7,4′-tetrahydropyran]-1-yl)methyl]cyclopropyl]methyl 4-methylbenzoate] has an IC50 of under 100 nM.
In the case of `CCc1nn(CC2(COC(=O)c3cccc(F)c3)CC2)c2c1C(=O)NCC1(CCOCC1)C2` [Example 352, [1-[(3-ethyl-4-oxo-spiro[6,8-dihydro-5H-pyrazolo[4,3-c]azepine-7,4′-tetrahydropyran]-1-yl)methyl]cyclopropyl]methyl 3-fluorobenzoate], the IC50 is reported as under 100 nM.
`CCc1nn(CC2(COC(=O)c3cccc(OC)c3)CC2)c2c1C(=O)NCC1(CCOCC1)C2` [Example 354, [1-[(3-ethyl-4-oxo-spiro[6,8-dihydro-5H-pyrazolo[4,3-c]azepine-7,4′-tetrahydropyran]-1-yl)methyl]cyclopropyl]methyl 3-methoxybenzoate] was tested, and the IC50 was under 100 nM.
Molecule `CCc1nn(CC2(COC(=O)c3ccc(Cl)cc3)CC2)c2c1C(=O)NCC1(CCOCC1)C2` [Example 355, [1-[(3-ethyl-4-oxo-spiro[6,8 dihydro-5H-pyrazolo[4,3-c]azepine-7,4′-letrahydropyran]-1-yl)methyl]cyclopropyl]methyl 4-chlorobenzoate] has an IC50 of under 100 nM.
`CCc1nn(CC2(COC(=O)c3ccccc3)COC2)c2c1C(=O)NCC1(CCOCC1)C2` [Example 356, [3-[(3-ethyl-4-oxo-spiro[6,8-dihydro-5H-pyrazolo[4,3-c]azepine-7,4′-tetrahydropyran]-1-yl)methyl]oxetan-3-yl]methyl benzoate] showed an IC50 of under 100 nM.
In the case of `CCc1nn(CC2(COC(=O)c3ccc(C)cc3)COC2)c2c1C(=O)NCC1(CCOCC1)C2` [Example 357, [3-[(3-ethyl-4-oxo-spiro[6,8-dihydro-5H-pyrazolo[4,3-c]azepine-7,4′-tetrahydropyran]-1-yl)methyl]oxetan-3-yl]methyl 4-methylbenzoate], the IC50 is reported as under 100 nM.
In the case of `CCc1nn(CC2(COC(=O)c3cccc(F)c3)COC2)c2c1C(=O)NCC1(CCOCC1)C2` [Example 358, [3-[(3-ethyl-4-oxo-spiro[6,8-dihydro-5H-pyrazolo[4,3-c]azepine-7,4′-tetrahydropyran]-1-yl)methyl]oxetan-3-yl]methyl 3-fluorobenzoate], the IC50 is reported as under 100 nM.
`CCc1nn(CC2(COC(=O)c3ccc(F)cc3)COC2)c2c1C(=O)NCC1(CCOCC1)C2` [Example 359, [3-[(3-ethyl-4-oxo-spiro[6,8-dihydro-5H-pyrazolo[4,3-c]azepine-7,4′-tetrahydropyran]-1-yl)methyl]oxetan-3-yl]methyl 4-fluorobenzoate] gave an IC50 of under 100 nM.
`CCc1nn(CC2(COC(=O)c3cccc(OC)c3)COC2)c2c1C(=O)NCC1(CCOCC1)C2` [Example 360, [3-[(3-ethyl-4-oxo-spiro[6,8-dihydro-5H-pyrazolo[4,3-c]azepine-7,4′-tetrahydropyran]-1-yl)methyl]oxetan-3-yl]methyl 3-methoxybenzoate] showed an IC50 of under 100 nM.
With `CCc1nn(CC2(COC(=O)c3ccc(Cl)cc3)COC2)c2c1C(=O)NCC1(CCOCC1)C2` [Example 361, [3-[(3-ethyl-4-oxo-spiro[6,8-dihydro-5H-pyrazolo[4,3-c]azepine-7,4′-tetrahydropyran]-1-yl)methyl]oxetan-3-yl]methyl 4-chlorobenzoate] the IC50 was under 100 nM.
`CCc1nn(C(C)CCOC(=O)c2ccccc2)c2c1C(=O)NCC1(CCOCC1)C2` (centres unmarked) [Example 362, 3-(3-ethyl-4-oxo-spiro[6,8-dihydro-5H-pyrazolo[4,3-c]azepine-7,4′-tetrahydropyran]-1-yl)butyl benzoate] gave an IC50 of under 100 nM.
`CCc1nn(CCCCOC(=O)c2ccccc2)c2c1C(=O)NCC1(CCOCC1)C2` [Example 363, 4-(3-ethyl-4-oxo-spiro[6,8-dihydro-5H-pyrazolo[4,3-c]azepine-7,4′-tetrahydropyran]-1-yl)butyl benzoate] showed an IC50 of under 100 nM.
`CCc1nn(CCCCOC(=O)c2cccc(C)c2)c2c1C(=O)NCC1(CCOCC1)C2` [Example 364, 4-(3-ethyl-4-oxo-spiro[6,8-dihydro-5H-pyrazolo[4,3-c]azepine-7,4′-tetrahydropyran]-1-yl)butyl 3-methylbenzoate] showed an IC50 of under 100 nM.
For `CCc1nn(CCCCOC(=O)c2ccc(C)cc2)c2c1C(=O)NCC1(CCOCC1)C2` [Example 365, 4-(3-ethyl-4-oxo-spiro[6,8-dihydro-5H-pyrazolo[4,3-c]azepine-7,4′-tetrahydropyran]-1-yl)butyl 4-methylbenzoate], the IC50 was under 100 nM.
`CCc1nn(CCCCOC(=O)c2ccc(F)cc2)c2c1C(=O)NCC1(CCOCC1)C2` [Example 366, 4-(3-ethyl-4-oxo-spiro[6,8-dihydro-5H-pyrazolo[4,3-c]azepine-7,4′-tetrahydropyran]-1-yl)butyl 4-fluorobenzoate] was tested, and the IC50 was under 100 nM.
`CCc1nn(CCCCOC(=O)c2ccc(C(C)=O)cc2)c2c1C(=O)NCC1(CCOCC1)C2` [Example 368, 4-(3-ethyl-4-oxo-spiro[6,8-dihydro-5H-pyrazolo[4,3-c]azepine-7,4′-tetrahydropyran]-1-yl)butyl 4-acetylbenzoate] gave an IC50 of 100 to 500 nM.
`CCc1nn(CCCCOC(=O)c2cccc(S(C)(=O)=O)c2)c2c1C(=O)NCC1(CCOCC1)C2` [Example 369, 4-(3-ethyl-4-oxo-spiro[6,8-dihydro-5H-pyrazolo[4,3-c]azepine-7,4′-tetrahydropyran]-1-yl)butyl 3-methylsulfonylbenzoate] gave an IC50 of 100 to 500 nM.
`CCc1nn(CCCCOC(=O)c2ccc(S(C)(=O)=O)cc2)c2c1C(=O)NCC1(CCOCC1)C2` [Example 370, 4-(3-ethyl-4-oxo-spiro[6,8-dihydro-5H-pyrazolo[4,3-c]azepine-7,4′-tetrahydropyran]-1-yl)butyl 4-methylsulfonylbenzoate] was tested, and the IC50 was 100 to 500 nM.
`CCc1nn(CCCCOC(=O)c2ccc(S(=O)(=O)CC)cc2)c2c1C(=O)NCC1(CCOCC1)C2` [Example 371, 4-(3-ethyl-4-oxo-spiro[6,8-dihydro-5H-pyrazolo[4,3-c]azepine-7,4′-tetrahydropyran]-1-yl)butyl 4-ethylsulfonylbenzoate] showed an IC50 of 100 to 500 nM.
In the case of `CCc1nn(CCCCOC(=O)c2cccc(S(=O)(=O)NC)c2)c2c1C(=O)NCC1(CCOCC1)C2` [Example 372, 4-(3-ethyl-4-oxo-spiro[6,8-dihydro-5H-pyrazolo[4,3-c]azepine-7,4′-tetrahydropyran]-1-yl)butyl 3-(methylsulfamoyl)benzoate], the IC50 is reported as under 100 nM.
`CCc1nn(CCCCOC(=O)c2ccc(S(=O)(=O)NC)cc2)c2c1C(=O)NCC1(CCOCC1)C2` [Example 373, 4-(3-ethyl-4-oxo-spiro[6,8-dihydro-5H-pyrazolo[4,3-c]azepine-7,4′-tetrahydropyran]-1-yl)butyl 4-(methylsulfamoyl)benzoate] gave an IC50 of 100 to 500 nM.
`CCc1nn(CCCCOC(=O)c2ccc(S(=O)(=O)N(C)C)cc2)c2c1C(=O)NCC1(CCOCC1)C2` [Example 375, 4-(3-ethyl-4-oxo-spiro[6,8-dihydro-5H-pyrazolo[4,3-c]azepine-7,4′-tetrahydropyran]-1-yl)butyl 4-(dimethylsulfamoyl)benzoate] showed an IC50 of 100 to 500 nM.
With `CCc1nn(CCCCOC(=O)c2ccc(S(=O)(=O)C3CCCC3)cc2)c2c1C(=O)NCC1(CCOCC1)C2` [Example 376, 4-(3-ethyl-4-oxo-spiro[6,8-dihydro-5H-pyrazolo[4,3-c]azepine-7,4′-tetrahydropyran]-1-yl)butyl 4-cyclopentylsulfonylbenzoate] the IC50 was 100 to 500 nM.
Molecule `CCc1nn(CCCCOC(=O)c2ccc(S(=O)(=O)N3CCCC3)cc2)c2c1C(=O)NCC1(CCOCC1)C2` [Example 377, 4-(3-ethyl-4-oxo-spiro[6,8-dihydro-5H-pyrazolo[4,3-c]azepme-7,4′-tetrahydropyran]-1-yl)butyl 4-pyrrolidin-1-ylsulfonylbenzoate] has an IC50 of 100 to 500 nM.
`CCc1nn(CCCCOC(=O)c2ccc(S(=O)(=O)N3CCOCC3)cc2)c2c1C(=O)NCC1(CCOCC1)C2` [Example 378, 4-(3-ethyl-4-oxo-spiro[6,8-dihydro-5H-pyrazolo[4,3-c]azepine-7,4′-telrahydropyran]-1-yl)butyl 4-morpholinosulfonylbenzoate] gave an IC50 of 100 to 500 nM.
For `CCc1nn(CCCCOC(=O)c2ccc(C(=O)NC)cc2)c2c1C(=O)NCC1(CCOCC1)C2` [Example 379, 4-(3-ethyl-4-oxo-spiro[6,8-dihydro-5H-pyrazolo[4,3-c]azepine-7,4′-tetrahydropyran]-1-yl)butyl 4-(methylcarbamoyl)benzoate], the IC50 was 100 to 500 nM.
In the case of `CCc1nn(CCCCOC(=O)c2ccc(C(=O)N(C)C)cc2)c2c1C(=O)NCC1(CCOCC1)C2` [Example 380, 4-(3-ethyl-4-oxo-spiro[6,8-dihydro-5H-pyrazolo[4,3-c]azepine-7,4′-tetrahydropyran]-1-yl)butyl 4-(dimethylcarbamoyl)benzoate], the IC50 is reported as 100 to 500 nM.
Molecule `CCc1nn(CCCCOC(=O)c2ccc(C(=O)N3CCOCC3)cc2)c2c1C(=O)NCC1(CCOCC1)C2` [Example 381, 4-(3-ethyl-4-oxo-spiro[6,8-dihydro-5H-pyrazolo[4,3-c]azepine-7,4′-tetrahydropyran]-1-yl)butyl 4-(morpholine-4-carbonyl)benzoate] has an IC50 of 100 to 500 nM.
